Results: PubChem BioAssay (NCI)
Where “and” joins values, the source holds several entries; their conditions need not be identical. Equal values may be shown once.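 Test compounds were applied to cells in 96-well plates for 48 hours at 5 doses. GI50 marks 50% less growth. TGI denotes the concentration required for complete inhibition of growth.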

Experiments:
Assay in all cases: DTP human tumour cell line panel, 48 h
[1] = system: SK-MEL-28 melanoma
[2] = system: SF-295 CNS
[3] = system: SW-620 colon
[4] = system: A498 renal
[5] = system: NCI-H460 lung
[6] = system: SNB-78 CNS
[7] = system: LXFL 529 NSCLC
[8] = system: HT29 colon
[9] = system: M19-MEL melanoma
[10] = system: NCI-H522 lung
[11] = system: KM20L2 colon
[12] = system: MDA-MB-435

Structure (SMILES) | TGI [1] | TGI [2] | TGI [3] | TGI [4] | TGI [5] | TGI [6] | TGI [7] | TGI [8] | TGI [9] | TGI [10] | TGI [11] | TGI [12] | GI50 [1] | GI50 [12] | GI50 [2] | GI50 [3] | GI50 [4] | GI50 [5] | GI50 [8] | GI50 [10]
COc1ccc(C2[C@@H](Cl)C(=O)N2c2ccc(OC)cc2)cc1 (some centres undefined) | > 100 µM | > 100 µM | > 100 µM | > 100 µM | > 100 µM | > 100 µM | > 100 µM | > 100 µM | > 100 µM | > 100 µM | – | – | – | – | – | – | – | – | – | –
c1ccc(C2SCc3nc4ccccc4n32)cc1 (centres undefined) | > 100 µM | > 100 µM | > 100 µM | > 100 µM | > 100 µM | > 100 µM | – | > 100 µM | > 100 µM | 77.8 µM | > 100 µM | – | – | – | – | – | – | – | – | –
CCN(CC(O)COc1ccc2c(c1)[n+]([O-])nc(N)[n+]2[O-])C(C)=O (centres undefined) | > 100 µM | > 100 µM | > 100 µM | > 100 µM | > 100 µM | – | – | > 100 µM | – | > 100 µM | – | > 100 µM | – | – | – | – | – | – | – | –
O=C(Nc1c(Cl)cccc1Cl)Oc1cccc2cccnc12 | 75.2 µM | 69 µM | > 100 µM | 48 µM | 20.2 µM | – | – | > 100 µM | – | 20.3 µM | – | > 100 µM | 7.28 µM | 7.52 µM | 6.68 µM | 4.23 µM | 7.99 µM | 3.46 µM | 19.4 µM | 3.71 µM
O=C1C2Cc3ccccc3CN2C(=O)N1CN1CCCCC1 (centres undefined) | > 100 µM | > 100 µM | > 100 µM | > 100 µM | > 100 µM | – | > 100 µM | – | > 100 µM | > 100 µM | > 100 µM | – | – | – | – | – | – | – | – | –
S=C1NC(c2ccccc2)NC(c2ccccc2)S1 (centres undefined) | > 100 µM | > 100 µM | > 100 µM | > 100 µM | 63.3 µM | – | – | > 100 µM | – | > 100 µM | – | > 100 µM | – | – | – | – | – | – | – | –
O=C(O)[C@@H](Cc1ccccc1)NS(=O)(=O)c1ccc(-c2ccccc2)cc1 | > 100 µM | > 100 µM | > 100 µM | > 100 µM | > 100 µM | – | – | > 100 µM | – | > 100 µM | – | > 100 µM | > 100 µM | > 100 µM | > 100 µM | > 100 µM | 59.6 µM | > 100 µM | > 100 µM | > 100 µM
CC(=O)Nc1ccc2c(c1)[nH]c(=O)c1cc(NC(C)=O)ccc12 | > 100 µM | > 100 µM | > 100 µM | > 100 µM | > 100 µM | – | – | > 100 µM | – | > 100 µM | – | > 100 µM | > 100 µM | > 100 µM | > 100 µM | > 100 µM | > 100 µM | > 100 µM | > 100 µM | > 100 µM
Clc1ccc(Nc2nnc(COc3ccccc3)c3ccccc23)cc1 | 7.23 µM | 6.7 µM | 7.79 µM | 3.64 µM | 7.12 µM | – | – | 4.25 µM | – | 4.04 µM | – | 5.31 µM | 2.84 µM | 1.01 µM | 1.65 µM | 2.86 µM | 0.686 µM | 2.7 µM | 0.429 µM | 0.354 µM
CC1NCCC(CC(=O)O)C1CC(=O)O (centres undefined) | > 100 µM | > 100 µM | > 100 µM | > 100 µM | > 100 µM | – | – | > 100 µM | – | > 100 µM | – | > 100 µM | – | – | – | – | – | – | – | –
C[C@H]1O[C@@H](O[C@H]2[C@@H](O)C[C@H](O[C@H]3[C@@H](O)C[C@H](O[C@H]4CC[C@]5(C)C6CC[C@]7(C)[C@@H](C8=CC(=O)OC8)CC[C@]7(O)C6CC[C@@H]5C4)O[C@@H]3C)O[C@@H]2C)C[C@H](O)[C@@H]1O (some centres undefined) | 0.101 µM | 0.0545 µM | 0.0678 µM | 0.262 µM | 0.0231 µM | – | – | 0.0653 µM | – | 0.0319 µM | – | 0.0666 µM | 0.0313 µM | 0.017 µM | 0.014 µM | 0.0178 µM | 0.0351 µM | 0.00973 µM | 0.0193 µM | –
C=C1CC2(CC(c3ccccc3C)OC(c3ccccc3C)C2)OC1=O (centres undefined) | 4.27 µM | 29.4 µM | 3.59 µM | 21.6 µM | 14.2 µM | – | – | 3.53 µM | – | 3.23 µM | – | 3.13 µM | – | – | – | – | – | – | – | –
C/C=C1/CN2CCC34c5ccccc5N5C(=O)C(C6CC78c9ccccc9N9C(=O)C=CC(C%10CC7N6C/C%10=C/C)C98)=CC(C1CC23)C54 (centres undefined) | 11.3 µM and 22.7 µM | 19.6 µM and 32.7 µM | 5.45 µM and 11.8 µM | 16.6 µM and 23.7 µM | 15.9 µM and 40 µM | – | – | 9.87 µM and 5.4 µM | – | 11 µM and 27.2 µM | – | 21.4 µM and 21.7 µM | 10.1 µM | 7.47 µM | 15.9 µM | 3.32 µM | 10.7 µM | 9.87 µM | – | 8.97 µM
COc1ccc(COc2ccc(Cc3cnc(N)nc3N)cc2OC)cc1 | > 25 µM | > 25 µM | > 25 µM | > 25 µM | > 25 µM | – | – | > 25 µM | – | > 25 µM | – | > 25 µM | 24.8 µM | > 25 µM | 10.4 µM | > 25 µM | 2.27 µM | > 22.1 µM | 11.7 µM | > 25 µM
O=C(Nc1ccc([N+](=O)[O-])cc1Cl)c1cc(Cl)ccc1O | 2.03 µM and 2.01 µM | 0.308 µM and 0.609 µM | 15.5 µM and 11.9 µM | 0.171 µM and 0.353 µM | 5.98 µM | – | – | 3.68 µM and > 28.8 µM | – | – | – | 0.381 µM and 1.33 µM | 0.165 µM and 0.243 µM | 0.115 µM and 0.244 µM | 0.112 µM and 0.207 µM | 0.163 µM and 0.333 µM | 0.0329 µM and 0.0832 µM | 0.134 µM and 0.213 µM | 1.26 µM and 2.16 µM | 0.0764 µM and 0.171 µM
O=C1C2=C(c3ccccc31)C(c1ccc([N+](=O)[O-])cc1)NC(=S)N2 (centres undefined) | > 100 µM | > 100 µM | > 100 µM | > 100 µM | > 100 µM | – | > 100 µM | > 100 µM | > 100 µM | > 100 µM | > 100 µM | – | – | – | – | – | – | – | – | –
CC#CC#C/C=C1/C=CC2(CCCCO2)O1 (centres undefined) | > 100 µM | > 100 µM | > 100 µM | > 100 µM | > 100 µM | – | – | > 100 µM | – | > 100 µM | – | > 100 µM | – | – | – | – | – | – | – | –
Cc1cc(C(=O)NOCCO)c(Nc2ccc(I)cc2F)n(C)c1=O | – | > 100 µM | > 100 µM | 0.0286 µM and 0.0435 µM | > 100 µM | – | – | > 100 µM | – | > 100 µM | – | > 100 µM | 0.00227 µM and < 0.01 µM | 0.00458 µM and < 0.01 µM | > 100 µM | 0.00252 µM and < 0.01 µM | 0.00323 µM and 0.0103 µM | > 10 µM and 46.7 µM | 0.00193 µM and < 0.01 µM | > 10 µM and 13.7 µM
